From patent publication US9910050B2, “Mutant smoothened and methods of using the same” (Curis, Inc., priority 2009, dated 2018)
“Also recorded” adds a separate entry of the source.

What was measured:
[1] = system: Smo localization to the primary cilium in S12 cells; assay: Smo immunostaining, ciliary localization in S12 cells; details: 16 h; for ciliary accumulation of Smo in the absence of Hh stimulation: no Shh; for effect on Smo localization compared with GDC-0449: absence or presence of Shh, 1 μM
SMO-D473H = molecular target: T1, SMO-D473H (Homo sapiens, UniProt Q99835, D473H); assay: Gli-luciferase reporter assay in C3H10T½ cells transfected with SMO-D473H; assay type: cell-based; details: for activity against SMO-D473H, inhibition of Gli-luciferase activity: screen at 1 μM compound
T1 construct: expressed in transfected cells; host or cells: C3H10T½ cells (reporter assay)
T1 sequence (Q99835 28-787 D473H): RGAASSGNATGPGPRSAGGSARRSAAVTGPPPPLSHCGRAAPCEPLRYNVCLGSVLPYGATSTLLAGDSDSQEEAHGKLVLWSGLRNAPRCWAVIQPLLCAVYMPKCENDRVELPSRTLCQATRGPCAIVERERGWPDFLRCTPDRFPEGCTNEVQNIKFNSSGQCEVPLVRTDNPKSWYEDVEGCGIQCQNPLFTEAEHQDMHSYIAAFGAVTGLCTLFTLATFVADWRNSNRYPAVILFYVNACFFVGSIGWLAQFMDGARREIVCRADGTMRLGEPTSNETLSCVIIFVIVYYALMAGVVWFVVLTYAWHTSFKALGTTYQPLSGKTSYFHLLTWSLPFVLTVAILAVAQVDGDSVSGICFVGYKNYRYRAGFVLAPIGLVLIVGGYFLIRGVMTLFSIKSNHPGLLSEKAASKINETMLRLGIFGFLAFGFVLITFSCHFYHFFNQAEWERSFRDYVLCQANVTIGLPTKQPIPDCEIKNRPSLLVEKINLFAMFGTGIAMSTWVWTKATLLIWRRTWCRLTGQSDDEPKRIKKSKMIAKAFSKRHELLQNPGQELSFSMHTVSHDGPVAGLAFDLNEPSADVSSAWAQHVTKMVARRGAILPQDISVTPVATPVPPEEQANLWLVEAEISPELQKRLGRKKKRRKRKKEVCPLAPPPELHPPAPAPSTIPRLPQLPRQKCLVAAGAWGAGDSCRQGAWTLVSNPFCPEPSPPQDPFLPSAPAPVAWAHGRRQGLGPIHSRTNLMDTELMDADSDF
Protocol: For the PTCH1 inhibition experiments, cells were transfected with an additional 200 ng of DNA containing varying ratios of PTCH1 to eGFP expression constructs. For the NF-κB and SV40 reporter assays, Gli-BS was replaced with either pGL4.32 or pGL3-Promoter. Six hours later, cells were collected by trypsin treatment and each well was redistributed over four wells of a 12-well plate. The FBS content of the culture medium was reduced to 0.5% the following morning to induce formation of primary cilia, and small molecule Hh inhibitors were added at indicated concentrations. […] Values were divided by Renilla luciferase activities to normalize for transfection efficiency and are shown as the mean of three separate experiments±1 standard deviation.

[2] = system: Gli1 mRNA in SG274 tumors; assay: Gli1 mRNA levels by qRT-PCR in SG274 tumors; assay type: in vivo, mouse; details: compound 5 100 mg kg−1 once daily, collected 6 hours after last treatment
[3] = Mouse pharmacokinetic study; assay type: in vivo; details: for pharmacokinetic properties in mice: oral
Protocol: Mouse pharmacokinetic studies. […] Briefly, 24 female CD-1 mice weighing 25 to 33 g at study initiation were given a single oral 100 mg kg−1 dose of either compound 4 or 5 as a suspension in 0.5% methylcellulose with 0.2% Tween-80 (MCT). Blood samples (n=3 mice per time point) were collected in tubes containing EDTA as an an anticoagulant by terminal cardiac puncture under isoflurane at the following time points: 5, 15 and 30 min; and 1, 3, 6, 9 and 24 h post-dose. Blood samples were centrifuged to collect plasma, which was stored at −80° C. until drug concentrations were quantified by LC/MS/MS.

endogenous SMO = molecular target: T2, endogenous SMO (Mus musculus, UniProt P56726); assay: Inhibition of endogenous SMO following stimulation by Hh ligand; assay type: cell-based; details: data not shown
T2 construct: endogenous in cells
T2 sequence (P56726 33-793): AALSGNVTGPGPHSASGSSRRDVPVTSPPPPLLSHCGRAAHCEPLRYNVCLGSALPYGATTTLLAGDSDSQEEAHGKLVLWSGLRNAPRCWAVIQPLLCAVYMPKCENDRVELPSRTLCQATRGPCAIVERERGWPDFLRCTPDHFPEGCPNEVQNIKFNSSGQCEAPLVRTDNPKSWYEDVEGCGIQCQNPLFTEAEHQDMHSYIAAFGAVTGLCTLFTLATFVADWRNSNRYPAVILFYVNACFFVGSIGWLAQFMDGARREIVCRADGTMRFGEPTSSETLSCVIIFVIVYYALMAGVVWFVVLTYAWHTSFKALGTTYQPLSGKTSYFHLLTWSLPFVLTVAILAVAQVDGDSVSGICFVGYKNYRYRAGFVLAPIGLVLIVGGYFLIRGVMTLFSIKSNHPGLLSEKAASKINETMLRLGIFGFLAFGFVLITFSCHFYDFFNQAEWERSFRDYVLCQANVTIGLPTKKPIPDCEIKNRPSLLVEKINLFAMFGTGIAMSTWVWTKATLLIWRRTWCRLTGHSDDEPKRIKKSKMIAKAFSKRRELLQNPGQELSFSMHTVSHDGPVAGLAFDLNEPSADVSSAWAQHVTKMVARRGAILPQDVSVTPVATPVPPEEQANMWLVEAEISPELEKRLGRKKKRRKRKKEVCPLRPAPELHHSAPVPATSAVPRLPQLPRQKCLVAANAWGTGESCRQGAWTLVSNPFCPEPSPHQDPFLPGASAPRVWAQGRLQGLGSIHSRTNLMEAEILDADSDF

[4] = system: SG274 allografts (Smo-D477G); assay: Tumor growth of subcutaneous SG274 MB allografts; assay type: in vivo, mouse; details: compound 5 100 mg kg−1 once daily, oral
Source text: (§1) Drug treatment of animals with MB allografts. Tumor-hearing animals were generated via serial subcutaneous propagation of murine Ptch+/−; p53−/− MB tumor lines (Wetmore C. et al. (2001) Cancer Res. 61:513-516). Subcutaneous tumors 1500-2000 mm3 were excised from donor mice under aseptic conditions, minced in High Glucose DMEM by repeated slicing and chopping with two #10 scalpels and passed through a cell dissociation sieve (Sigma, CD1-1KT). The resulting single cell suspension was washed twice in High Glucose DMEM and filtered through a 70 μm nylon cell strainer (BD Falcon) before counting in a Vi-CELL cell viability analyzer (Beckman Coulter). Approximately 2.5-4×10^6 live cells in a 100 μl volume were injected subcutaneously into the right lateral thorax of 7 to 10-week-old female CD-1 nude mice (CRL). Tumor dimensions were measured with Ultra Cal1 IV calipers (Fred V. Fowler Company Inc., Newton, Mass.) and tumor volume was calculated using the formula v=0.5×a×b2, where a and b are the […] perpendicular tumor diameters, respectively. When tumors reached 125-350 mm^3 in volume, animals were separated into treatment groups with similarly sized tumors and drug administration was initiated. […]

SMO-WT = molecular target: T3, SMO-WT (Homo sapiens, UniProt Q99835); assay: Gli-luciferase reporter assay in C3H10T½ cells transfected with SMO-WT; assay type: cell-based
T3 construct: expressed in transfected cells; host or cells: C3H10T½ cells (reporter assay)
T3 sequence (Q99835 28-787): as the sequence (Q99835 28-787 D473H) above, with H446D counted along it

[5] = system: pAKT and pS6 (PI3K pathway); assay: Immunoblot of activated AKT and S6 in MB allograft tumors; assay type: in vivo, mouse; details: 6-hour treatment with GDC-0941
Protocol: Immunoblotting. Frozen tumor samples were lysed in M-PER Mammalian Protein Extraction Reagent (Pierce) containing protease and phosphatase inhibitors. Lysates were separated on 4-12% Bis-Tris gels and proteins were transferred onto PVDF membranes with an iBlot (Invitrogen). Blots were blocked and incubated overnight at 4° C. with 5% milk containing one of the following primary antibodies; anti-cyclin D1 (Cell Signaling, #2922), anti-phospho(Ser473)-AKT (Cell Signaling, #4060), anti-total AKT (Cell Signaling #9272), anti-Gli2 (Cho A. et al. (2008) Dev. Biol. 321:27-39), or anti-actin (Santa Cruz Biotechnology, sc-47778), followed by a 1 h incubation at RT with appropriate HRP-conjugated secondary antibodies. Antigen-antibody interactions were visualized with SuperSignal West Dura Extended Duration Substrate (Pierce).

[6] = system: control and GDC-0449-resistant MB allografts; assay: Tumor growth of control and GDC-0449-resistant MB allografts, PI3K inhibitor study; assay type: in vivo, mouse; details: GDC-0941 150 mg kg−1 once daily, oral, SG102, SG152, SG274
Source text: as §1

[7] = system: Smo localization to the primary cilium; details: literature reports; cited from earlier work
human hepatocytes = assay: Metabolism by human hepatocytes; assay type: in vitro ADME; details: unpublished observation
[8] = 5 μM for cyclopamine, 1 μM for the others

## KAAD-cyclopamine
[1]; [8]
  ciliary accumulation of Smo in the absence of Hh stimulation: partially induced ciliary translation

## CNC1CCC(N(Cc2cccc(-c3ccncc3)c2)C(=O)c2sc3ccccc3c2Cl)CC1 (stereo not drawn) [SAG]
[1]; [8]
  ciliary accumulation of Smo in the absence of Hh stimulation: robust translocation of Smo to the primary odium

## CC1=C2C[C@H]3[C@@H](CC=C4C[C@@H](O)CC[C@@]43C)[C@@H]2CC[C@]12O[C@@H]1C[C@H](C)CN[C@H]1[C@H]2C [cyclopamine]
[1]; [8]
  ciliary accumulation of Smo in the absence of Hh stimulation: robust translocation of Smo to the primary odium
SMO-D473H
  activity against SMO-D473H, inhibition of Gli-luciferase activity: partially resistant; also recorded: neither cyclopamine nor SANT-1 can fully inhibit Smo-D473H

## C[C@@H]1CN(c2ccc(C(=O)Nc3ccc(Cl)c(NC(=O)c4cccc(Cl)c4)c3)cn2)C[C@H](C)N1 [Compound 5]
[2]
  Gli1 mRNA levels in SG274 tumors: downregulation in Gli1 mRNA levels
[3]; female, CD-1, mouse, mice, single oral 100 mg kg−1 dose, plasma, read-out: terminal half-life (t1/2) (converted)
  half-life: ~22 h
[3]
  pharmacokinetic properties in mice: good pharmacokinetic properties in mice
[1]
  effect on Smo localization compared with GDC-0449: very similar effects on Smo localization
Endogenous SMO
  less compound sufficient to inhibit endogenous SMO than in SMO overexpression assay: approximately 10 fold
[4]
  tumor growth of SG274 allografts: not only stopped growing but even started to shrink
SMO-WT; SMO-WT overexpression in C3H10T½ cells
  activity against wild type SMO, Gli-luciferase reporter: less potent against SMO-WT than GDC-0449
SMO-WT; SMO-WT transfected C3H10T½ cells, read-out: IC50, inhibition of GLI-luciferase reporter activity
  IC50: 300 nM
SMO-D473H; SMO-D473H transfected C3H10T½ cells, read-out: IC50, inhibition of Gli-luciferase reporter activity
  IC50: 700 nM
SMO-D473H; dose response
  inhibition of SMO-D473H, Gli-luciferase reporter dose response: can inhibit the drug-resistant mutant
SMO-D473H
  activity against SMO-D473H, inhibition of Gli-luciferase activity: improved potencies

## CS(=O)(=O)N1CCN(Cc2cc3nc(-c4cccc5[nH]ncc45)nc(N4CCOCC4)c3s2)CC1 [GDC-0941]
[5]
  pAKT and pS6 levels in tumors: decreased pAKT and pS6 levels
[6]
  tumor growth of control and resistant MB allograft models: greatly reduced tumor growth

## Cc1nn(-c2ccccc2)c(C)c1/C=N/N1CCN(Cc2ccccc2)CC1 [SANT-1]
[1]; 200 ng/ml octyl-Shh, 5 μM for cyclopamine, 1 μM for the others
  Hh-induced Smo translocation to the primary cilium: prevented Hh-induced Smo translocation
[1]; [8]
  ciliary accumulation of Smo in the absence of Hh stimulation: did not promote ciliary enrichment
[7]
  Shh and agonist-induced translocation of Smo to the cilium: prevented Shh and agonist-induced translocation of Smo
SMO-D473H
  activity against SMO-D473H, inhibition of Gli-luciferase activity: partially resistant; also recorded: neither cyclopamine nor SANT-1 can fully inhibit Smo-D473H

## CS(=O)(=O)c1ccc(C(=O)Nc2ccc(Cl)c(NC(=O)c3ccccc3)c2)c(Cl)c1 [Compound 3]
SMO-D473H
  activity against SMO-D473H, inhibition of Gli-luciferase activity: measurable activity

## O=C(Nc1ccc(Cl)c(NC(=O)c2cccc(Cl)c2)c1)c1ccc(N2CCC(O)CC2)nc1 [Compound 4]
[3]
  pharmacokinetic properties in mice: cleared much more rapidly from the blood stream than compound 5
SMO-D473H
  activity against SMO-D473H, inhibition of Gli-luciferase activity: improved potencies

## CCOc1cc(C(=O)Nc2ccc(Cl)c(-c3nc4ccccc4[nH]3)c2)cc(OCC)c1OCC [HhAntag]
[1]
  effect on Smo localization compared with GDC-0449: very similar effects on Smo localization
Human hepatocytes
  metabolism by human hepatocytes: rapidly metabolized by human hepatocytes
SMO-D473H
  activity against SMO-D473H, inhibition of Gli-luciferase activity: essentially equipment against all SMO alleles
